# Compound: CC1=C(C(=O)N2C=CSC2=N1)CCN3CCC(=C(C4=CC=CC=C4)C5=CC=C(C=C5)F)CC3 + Cc1cc(Nc2cc(N3CCN(C)CC3)nc(Sc3ccc(NC(=O)C4CC4)cc3)n2)n[nH]1 [Tozasertib] (partner 0.1 µM)
# Test: relative viability (nuclei count vs DMSO), 5 days (fraction); higher = more cells survive
# Procedure, shortened: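 Values are medians from duplicate plates. Each reflects relative viability, defined as the nuclei count of treated wells over that of vehicle wells. Lung cancer cell lines in 1536-well plates were pin-tool dosed one day after seeding with one drug alone or with a fixed anchor-drug dose plus five library-drug doses (not always all listed) in √10 steps, then fixed, stained and imaged at 4× after 5 days.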
Cell Line,relative viability (first compound 0.08 µM),relative viability (first compound 0.253 µM),relative viability (first compound 0.8 µM),relative viability (first compound 2.53 µM),relative viability (first compound 8 µM)
201T,0.976,1.02,0.952,0.973,0.739
A-427,0.179,0.19,0.175,0.204,0.21
ABC-1,0.15,0.181,0.165,0.206,0.174
BEN,0.48,0.493,0.493,0.529,0.551
CAL-12T,0.316,0.304,0.311,0.302,0.255
COR-L23,0.18,0.164,0.169,0.214,0.184
COR-L 105,0.322,0.346,0.34,0.388,0.345
ChaGo-K-1,0.202,0.244,0.215,0.232,0.21
EKVX,0.385,0.444,0.35,0.334,0.359
EMC-BAC-2,0.192,0.278,0.275,0.278,0.261
EPLC-272H,0.225,0.25,0.269,0.203,0.515
H3255,0.497,0.921,0.633,0.489,0.507
HARA,0.111,0.117,0.104,0.111,0.114
HCC-15,0.347,0.447,0.379,0.368,0.281
HCC-44,0.855,1.33,,0.896,0.525
HCC-78,0.402,0.468,0.451,0.345,0.303
HCC-366,0.103,0.123,0.103,0.0901,0.0622
HCC-827,0.43,0.396,0.389,0.472,0.399
HOP-62,0.402,0.369,0.305,0.323,0.258
LC-2-ad,0.489,0.487,0.468,0.425,0.418
LCLC-97TM1,0.266,0.166,0.193,0.237,0.182
LCLC-103H,0.437,0.449,0.451,0.486,0.532
LK-2,0.176,0.188,0.172,0.161,0.174
LOU-NH91,0.7,0.6,0.688,0.701,0.605

Cell Line,relative viability (first compound 0.08 µM),relative viability (first compound 0.253 µM),relative viability (first compound 0.8 µM),relative viability (first compound 2.53 µM),relative viability (first compound 8 µM)
LU99A,0.299,0.272,0.268,0.307,0.197
LXF-289,0.219,0.265,0.16,0.193,0.155
NCI-H23,0.365,0.386,0.214,0.307,0.316
NCI-H322M,0.487,0.468,0.443,0.561,0.529
NCI-H358,0.0851,0.0942,0.0998,0.129,0.112
NCI-H441,0.67,0.754,0.657,0.688,0.498
NCI-H460,0.272,0.57,0.392,0.409,0.252
NCI-H520,0.514,0.435,0.439,0.464,0.401
NCI-H522,0.551,0.92,0.555,0.523,0.583
NCI-H596,0.757,0.757,1.14,0.877,0.516
NCI-H647,0.267,,0.437,0.105,0.141
NCI-H650,0.695,0.801,0.748,0.723,0.689
NCI-H661,0.341,0.35,0.36,0.383,0.361
NCI-H727,0.511,0.589,0.625,0.739,0.598
NCI-H838,0.267,0.286,0.27,0.266,0.244
NCI-H1355,0.623,0.544,0.52,0.496,0.532
NCI-H1395,0.809,0.868,0.697,0.765,0.686
NCI-H1437,0.399,0.35,0.433,0.43,0.36
NCI-H1648,0.391,,,0.392,0.525
NCI-H1650,0.402,0.428,0.463,0.372,0.363
NCI-H1651,0.689,0.611,0.683,0.793,0.379
NCI-H1666,0.596,0.591,0.655,0.642,0.493
NCI-H1734,0.253,0.237,0.266,0.27,0.234
NCI-H1755,0.553,0.614,0.604,0.547,0.421

Cell Line,relative viability (first compound 0.08 µM),relative viability (first compound 0.253 µM),relative viability (first compound 0.8 µM),relative viability (first compound 2.53 µM),relative viability (first compound 8 µM)
NCI-H1793,0.354,0.339,0.312,0.362,0.258
NCI-H1915,0.438,0.442,0.444,0.432,0.318
NCI-H1944,0.26,0.273,0.226,0.224,0.204
NCI-H1975,0.852,0.63,0.816,0.922,0.37
NCI-H1993,0.627,0.502,0.557,0.64,0.495
NCI-H2009,0.775,0.668,0.738,0.756,0.478
NCI-H2023,0.446,0.265,0.393,0.44,0.272
NCI-H2085,0.896,0.735,0.747,0.844,0.702
NCI-H2087,0.298,0.245,0.276,0.242,0.23
NCI-H2126,0.889,0.913,0.846,0.986,0.739
NCI-H2170,0.704,0.804,0.741,0.781,0.404
NCI-H2228,0.278,0.237,0.227,0.232,0.282
NCI-H2342,0.559,0.492,0.585,0.504,0.431
NCI-H2347,0.439,0.554,0.525,0.471,0.487
NCI-H2405,0.777,0.767,0.749,0.601,0.618
NCI-H3122,0.315,0.351,0.392,0.491,0.324
PC-3 [JPC-3],0.924,0.821,0.91,0.988,0.66
PC-14,0.489,0.675,0.603,0.681,0.481
RERF-LC-KJ,0.432,0.462,0.518,0.426,0.452
SK-LU-1,0.307,0.286,0.288,0.283,0.295
SK-MES-1,0.922,0.971,0.862,1.08,0.601
SW 1573,,0.211,0.157,0.203,0.21
UMC-11,0.208,0.225,0.194,0.212,0.202

# From the supplement of paper PMC10307832
